According to US20060106042A1, “Substituted heterocyclpyrmidines” (priority 2002, published 2006):
Read-outs that look alike come from different tables or passages of the source.

Tests used:
[1] = system: larvae of the mustard beetle (Phaedon cochleariae); assay: Phaedon larvae test (cabbage leaves, dip); format: in vivo; conditions: 168 h, after 7 d, cabbage leaves dipped, read-out: Kill rate in % after 7 d
Protocol: (§1) • Solvent: 7 parts by weight of dimethylformamide • Emulsifier: 2 parts by weight of alkylaryl polyglycol ether
After the desired period of time, the kill in % is determined. 100% means that all beetle larvae have been killed; 0% means that none of the beetle larvae have been killed.

[2] = system: greenhouse red spider mite (Tetranychus urticae); assay: Tetranychus test (OP-resistant/dip treatment); format: in vivo; conditions: 168 h, 100 ppm, after 7 d, OP-resistant, bean plants dipped, read-out: Kill rate in % after 7 d
Protocol: Tetranychus Test (OP-Resistant/Dip Treatment)
as §1
After the desired period of time, the effect in % is determined. 100% means that all spider mites have been killed; 0% means that none of the spider mites have been killed.

[3] = system: Heliothis armigera caterpillars; assay: Heliothis armigera test (soya bean shoots, dip); format: in vivo; conditions: 500 ppm, soya bean shoots dipped
Protocol: as §1
(§2) To produce a suitable preparation of active compound, 1 part by weight of active compound is mixed with the stated amounts of solvent and emulsifier, and the concentrate is diluted with emulsifier-containing water to the desired concentration.
Soya bean shoots (Glycine max) are treated by being dipped into the preparation of active compound of the desired concentration and are populated with Heliothis annigera caterpillars while the leaves are still moist.
(§3) After the desired period of time, the kill in % is determined. 100% means that all caterpillars have been killed; 0% means that none of the caterpillars have been killed.

[4] = system: peach aphid (Myzus persicae); assay: Myzus test (cabbage leaves, dip); format: in vivo; conditions: 500 ppm, cabbage leaves dipped
Protocol: as §1, §2
Cabbage leaves (Brassica oleracea) which are heavily infested by the peach aphid (Myzus persicae) are treated by being dipped into the preparation of active compound of the desired concentration.
After the desired period of time, the kill in % is determined. 100% means that all aphids have been killed; 0% means that none of the aphids have been killed.

[5] = logP determination by reversed-phase HPLC (EEC Directive 79/831 Annex V.A8); format: physicochemical
Excerpt: (a) Mobile phases for the determination of the acidic range: 0.1% aqueous phosphoric acid, acetonitrile; linear gradient from 10% acetonitrile to 90% acteonitrile—the corresponding measurement results in Table 1 are marked^a). […]

[6] = system: caterpillars of the diamondback moth (Plutella xylostella); assay: Plutella test (cabbage leaves, dip); format: in vivo; conditions: 500 ppm, cabbage leaves dipped
Protocol: as §1, §2
Cabbage leaves (Brassica oleracea) are treated by being dipped into the preparation of active compound of the desired concentration and are populated with caterpillars of the diamondback moth (Plutella xylostella) while the leaves are still moist.
as §3

[7] = system: cotton aphid (Aphis gossypii); assay: Aphis gossypii test (cotton leaves, dip); format: in vivo; conditions: 500 ppm, cotton leaves dipped
Protocol: as §1, §2
Cotton leaves (Gossypium hirsutum) which are heavily infested by the cotton aphid (Aphis gossypii) are treated by being dipped into the preparation of active compound of the desired concentration.
After the desired period of time, the kill in % is determined. 100% means all aphids have been killed; 0% means that none of the aphids have been killed.

[8] = system: caterpillars of the armyworm (Spodoptera frugiperda); assay: Spodoptera frugiperda test (cabbage leaves, dip); format: in vivo; conditions: 168 h, after 7 d, cabbage leaves dipped, read-out: Kill rate in % after 7 d
Protocol: Spodoptera frugiperda Test
as §1, §3

[9] = reversed-phase HPLC column (C18), pH 2.3, read-out: logP (pH 2.3)
[10] = reversed-phase HPLC column (C18); acidic range: 0.1% aqueous phosphoric acid/acetonitrile gradient, C18, 43° C.; read-out: logP a)

Structure (SMILES)	pest or weed control at 500 ppm [1]	pest or weed control at 100 ppm [2]	Kill rate in % after 7 d [3]	Kill rate in % after 6 d [4]	chromatographic logP [5, 9]	Kill rate in % after 7 d [6]	Kill rate in % after 6 d [7]	chromatographic logP [5, 10]	pest or weed control at 500 ppm [8]
FC(F)=CCCSc1nccc(-n2cccn2)n1 [Example 1, 2-[(4,4-difluoro-3-butenyl)-sulfanyl]-4-(pyrazol-1-yl)-pyrimidine]	100%	100%	100%	99%	3.3	100%			
FC(F)=CCCSc1nccc(-c2ccccn2)n1 [Example 2]	100%			100%	3.33		99%		
FC(F)=CCCSc1nccc(-c2nccc3ccccc23)n1 [Example 7]		100%		100%		100%	98%	3.67	
COc1ccnc(-c2ccnc(SCCC=C(F)F)n2)c1 [Example 8]				95%			99%	2.41	
FC(F)=CCCSc1nccc(-n2ccnn2)n1 [Example 25]		100%	100%			100%		2.62	
FC(F)=CCCSc1nccc(-n2nccn2)n1 [Example 26]				99%			95%	2.7	100%
COc1cccnc1-c1ccnc(SCCC=C(F)F)n1 [Example 37]		100%	100%			100%		2.14	
